{
  "source": "patent US20050130903A1",
  "about": "“Therapeutic agents and methods of use thereof for the modulation of angiogenesis” (priority 2000, published 2005)",
  "key": {"[1]": {"assay": "stability in liver microsomes", "format": "in vitro ADME, rat", "details": "male, rat, liver microsomes, pH 7.4, male rat liver microsomes 0.5 mg/mL, NADPH regenerating system", "procedure": "The stability of the angiogenesis inhibitor compounds in liver microsomes was also tested. The test angiogenesis inhibitor compound at a concentration of 3 μM was incubated with male rat liver microsomes (0.5 mg/mL protein) in the presence of a NADPH regenerating system (1 mM NADP, 10 mM G6P, 1 U/mL G6PdH2, 3 mM MgCl2 ) in 100 mM Phosphate buffer at pH 7.4 at 37° C. Incubations were performed in the presence and absence of 1 μM epoxide hydrolase (EH) inhibitor N-cyclohexyl-N′-(3-phenylpropyl)urea (M. Morisseau et al. (1999) PNAS 96:8849-54) and quantitative analysis performed using LC/MS/MS.\n(§1) The parent compound remaining (relative to time 0) in the incubation mixture was plotted as a function of time; a first order exponential equation was fit to the observed data, and the elimination half-lives associated with the disappearance of the test compound were determined."}, "[2]": {"assay": "plasma stability in human plasma", "format": "in vitro ADME", "details": "human", "procedure": "The plasma stability of the angiogenesis inhibitor compounds of the invention was also tested in human plasma at 37° C. (at a 20 μM concentration of the angiogenesis inhibitor compound). The matrix minus the test angiogenesis inhibitor compound was equilibrated at 37° C. for 3 minutes. The assay was initiated by addition of the test compound, and the reaction mixture was incubated in a shaking water bath at 37° C. […] The supernatant was analysed by Liquid Chromatography/Mass spectrometry (LC/MS) using a four point standard curve to obtain percent recovery.\nas §1, with “test angiogenesis inhibitor” for “test”"}, "[3]": {"system": "collagen-induced arthritis", "assay": "collagen-induced arthritis model", "format": "in vivo, Louvain rats", "details": "for mean radiological evaluation score: control group 2.2", "procedure": "The efficacy of the compound described above in example 5 was evaluated using a collagen-induced arthritis model. Briefly, syngeneic 8-week-old female Louvain rats were immunized intradermally under ether anesthesia on Day 0 with 0.5 mg chick collagen II (Genzyme, Boston, Mass.) solubilized in 0.1M acetic acid and emulsified in Incomplete Freund's Adjuvant (Difco, Detroit, Mich.). Using this method, more than 90% of rats typically develop synovitis in both hind limbs 10-14 days post immunization. […] The compound of example 5 was dissolved in a combination of ethanol and distilled water. The rats were dosed commencing on day 10 post immunization as follows: (1) control group: vehicle only daily via intravenous injection (iv) (12 rats), (2) high dose group: 30 mg/kg of the compound of example 5 iv every other day (12 rats), (3) low dose group: 15 mg/kg of the compound of example 5 iv every day (12 rats) and (4) oral group: 100 mg/kg of the compound of example 5 every other day by gavage (11 rats).\nDaily clinical evaluations of each paw were graded on an integer scale ranging from 0 to 4, where a score of 0 indicates a normal, unaffected limb, and 4 indicates severe joint destruction. The clinical score is the sum of the four limb scores, and has a maximum possible value of 16. Collagen induced arthritis typically develops only in the hind limbs; therefore, a score of 6 to 8 represents severe arthritis.\nRadiologic evaluations of the hind limbs were performed by an investigator blinded to the treatment protocol. The score assigned to each limb was based on (1) the degree of soft tissue swelling, (2) narrowing of the space between joints, (3) degree of periosteal new bone formation and (4) the presence of erosions or ankylosis. Each limb was scored on a scale of 1 to 3, with 1 representing a normal limb and 3 representing severe joint destruction."}, "[4]": {"system": "human tumor cell lines", "assay": "panel of cancer cell lines, overall", "format": "cell-based", "details": "in words, summary of Table VIII", "procedure": "The compound of example 5 was also evaluated against a panel of cancer cell lines (Alley, M. C. et al. […] Cancer Research 48: 589-601; Grever, M. R., et al. (1992) Seminars in Oncology, Vol. 19, No. 6, pp 622-638; Boyd, M. R., and Paull, K. D. (1995) Drug Development Research 34: 91-109). The human tumor cell lines of the cancer screening panel were grown in RPMI 1640 medium containing 5% fetal bovine serum and 2 mM L-glutamine. Cells were inoculated into 96 well microtiter plates in 100 μL at plating densities ranging from 5,000 to 40,000 cells/well depending on the doubling time of individual cell lines. […]\nFollowing drug addition, the plates were incubated for an additional 48 hours at 37° C., 5% CO2, 95% air, and 100% relative humidity. […] Bound stain was subsequently solubilized with 10 mM trizma base, and the absorbance was read on an automated plate reader at a wavelength of 515 nm. […] Using the seven absorbance measurements [time zero, (Tz), control growth, (C), and test growth in the presence of drug at the five concentration levels (Ti)], the percentage growth was calculated at each of the drug concentrations levels.\nPercentage growth inhibition was calculated as: [(Ti−Tz)/(C−Tz)]×100 for concentrations for which Ti>/=Tz [(Ti−Tz)/Tz]×100 for concentrations for which Ti<Tz. […]"}},
  "note": "Where two headings read alike, the source gives them in different places.",
  "data": [
    {"molecule": "CO[C@@H]1[C@H](OC(=O)N[C@@H](C(N)=O)C(C)C)CC[C@]2(CO2)[C@H]1[C@@]1(C)O[C@@H]1CC=C(C)C", "note": "[Example 5, (1-Carbamoyl-2-methyl-propyl)-carbamic acid-(3R,4S,5S,6R )-5-methoxy-4-[(2R,3R)-2-methyl-3-(3-methyl-but-2-enyl)-oxiranyl]-1-oxa-spiro[2.5]oct-6-yl ester]", "values": [
      {"measurement": "half-life at 3 μM", "setting": "[1]; with 1 μM EH inhibitor, read-out: T1/2 (with EH inhibitor)", "result": "12.1 ± 1", "unit": "min"},
      {"measurement": "half-life at 3 μM", "setting": "[1]; without EH inhibitor, read-out: T1/2 (without EH inhibitor)", "result": "11.9 ± 1", "unit": "min"},
      {"measurement": "recovery at 0 min, 20 μM", "setting": "[2]", "result": 100, "unit": "%"},
      {"measurement": "recovery at 15 min, 20 μM", "setting": "[2]", "result": 108, "unit": "%"},
      {"measurement": "recovery at 30 min, 20 μM", "setting": "[2]", "result": 103, "unit": "%"},
      {"measurement": "recovery at 60 min, 20 μM", "setting": "[2]", "result": 97, "unit": "%"},
      {"measurement": "recovery at 90 min, 20 μM", "setting": "[2]", "result": 129, "unit": "%"},
      {"measurement": "recovery at 120 min, 20 μM", "setting": "[2]", "result": 107, "unit": "%"},
      {"measurement": "half-life at 20 μM", "setting": "[2]; plasma", "result": "≥ 500", "unit": "min"},
      {"measurement": "mean daily clinical score (FIG. 2)", "setting": "[3]; each treatment group, 19 day period from day 10", "result": "significant therapeutic benefit"},
      {"measurement": "mean radiological evaluation score", "setting": "[3]; high dose group: 30 mg/kg iv every other day", "result": 0.6},
      {"measurement": "mean radiological evaluation score", "setting": "[3]; low dose group: 15 mg/kg iv every day", "result": 0.6},
      {"measurement": "mean radiological evaluation score", "setting": "[3]; oral group: 100 mg/kg every other day by gavage", "result": 1.6},
      {"measurement": "inhibitory effect on tumor cell lines", "setting": "[4]", "result": "significant inhibitory effect on a wide variety of tumor cell lines"}
    ]}
  ]
}
